In patent US8012942B2, “Carba-nucleoside analogs for antiviral treatment” (Gilead Sciences, Inc., priority 2009, dated 2011):
pEC50, pIC50: −log10 of the molar value. Read-outs that look alike come from different tables or passages of the source.

Columns and labels:
Replicon cells = experiment: HCV EC50 determination, replicon luciferase assay; type: cell-based; settings: Hepatitis C virus, 72 h
Protocol: Replicon cells were seeded in 96-well plates at a density of 8×10^3 cells per well in 100 μL of culture medium, excluding Geneticin. Compound was serially diluted in 100% DMSO and then added to the cells at a 1:200 dilution, achieving a final concentration of 0.5% DMSO and a total volume of 200 μL. Plates were incubated at 37° C. for 3 days, after which culture medium was removed and cells were lysed in lysis buffer provided by Promega's luciferase assay system. Following the manufacturer's instruction, 100 μL of luciferase substrate was added to the lysed cells and luciferase activity was measured in a TopCount luminometer.

HCV Δ21 NS5b polymerase = biological target: T1, HCV Δ21 NS5b polymerase (Hepatitis C virus genotype 1b, UniProt Q9WMX2); experiment: HCV IC50 determination, NS5b polymerase assay; type: biochemical
T1 construct: 75 nM HCV Δ21 NS5b polymerase
Protocol: Assay Protocol: Either wild type or S282T (Migliaccio, et al, J. Biol. Chem. 2003, 49164-49170; Klumpp, et al., J. Biol. Chem. 2006, 3793-3799) mutant polymerase enzyme was used in this assay. NS5b polymerase assay (40 μL) was assembled by adding 28 μL polymerase mixture (final concentration: 50 mM Tris-HCl at pH 7.5, 10 mM KCL, 5 mM MgCl2, 1 mM DTT, 10 mM EDTA, 4 ng/μL of RNA template, and 75 nM HCV Δ21 NS5b polymerase) to assay plates followed by 4 μL of compound dilution. The polymerase and compound were pre-incubated at 35° C. for 10 minute before the addition of 8 μL of nucleotide substrate mixture (33P-α-labeled competing nucleotide at KM and 0.5 mM of the remaining three nucleotides). The assay plates were covered and incubated at 35° C. for 90 min. Reactions were then filtered through 96-well DEAE-81 filter plates via vacuum. The filter plates were then washed under vacuum with multiple volumes of 0.125 M NaHPO4, water, and ethanol to remove unincorporated label. Plates were then counted on TopCount to assess the level of product synthesis over background controls. The IC50 value is determined using Prism fitting program.

[1] = replicon cells, 3 days at 37° C., luciferase activity, read-out: EC50

| Compound | pEC50 (Replicon cells; [1]) | pIC50 (HCV Δ21 NS5b polymerase) | other results |
| --- | --- | --- | --- |
| CCOC(=O)[C@H](C)NP(=O)(OC[C@H]1O[C@@H](c2scc3c(N)ncnc23)[C@](C)(O)[C@@H]1O)Oc1ccccc1 (stereo partly drawn) [Compound 64] | – | – | pEC50 (Replicon cells): 5.54 |
| C[C@@]1(O)[C@H](O)[C@@H](CO)O[C@H]1c1scc2c(N)ncnc12 [Compound 1] | 4.05 | – | – |
| CC(C)(C)C(=O)SCCOP(=O)(OCCSC(=O)C(C)(C)C)OC[C@H]1O[C@@H](c2scc3c(=O)[nH]c(N)nc23)[C@](C)(O)[C@@H]1O [Compound 62] | 4.62 | – | – |
| CC(C)(C)C(=O)SCCOP(=O)(OCCSC(=O)C(C)(C)C)OC[C@H]1O[C@@H](c2scc3c(N)ncnc23)[C@](C)(O)[C@@H]1O [Compound 2] | 5.21 | – | – |
| C[C@@]1(O)[C@H](O)[C@@H](COP(=O)(O)OP(=O)(O)OP(=O)(O)O)O[C@H]1c1scc2c(=O)[nH]c(N)nc12 [Compound 63] | – | 6.57 | – |
| C[C@@]1(O)[C@H](O)[C@@H](COP(=O)(O)OP(=O)(O)OP(=O)(O)O)O[C@H]1c1scc2c(N)ncnc12 [Compound 4] | – | 6.43 | – |
